Measured values from patent publication US8415357B2 (Canbas Co., Ltd., priority 2007, dated 2013).
pIC50: −log10 of the molar value.

tested on: Jurkat cells; assay: Adaptation to G2 cell cycle arrest (G1 increment) in X-ray pre-arrested Jurkat cells, flow cytometry; assay type: cell-based, human; settings: Homo sapiens, Jurkat, 24 h, Table 2; concentration causing half-maximal increase of % cells in G1 phase (G1 increment); Jurkat pre-arrested by 10 Gy X-ray, 24 hours with compound
Description: Phenotype-based screening was used to measure the ability of compounds of the invention to cause adaptation to G2 cell cycle arrest in G2-arrested cells. Adaptation to G2 cell cycle arrest and re-entry into the cell cycle can result in death of the previously G2-arrested cell, or suppression (inhibition) of further proliferation of the previously G2-arrested cell. In a non-limiting embodiment, the ability to cause adaptation to G2 cell cycle arrest was measured by contacting cells in which G2 arrest had been induced by irradiation (e.g., gamma (γ) radiation or X-ray radiation), with compounds of the invention at various concentrations and, for each compound at each concentration, determining the percentage of cells that escaped G2 arrest and re-entered the cell cycle, by determining the percentage of cells in G1 phase. The IC50 value for each compound was calculated as the dosage (usually in μM) that caused half-maximal increase of the percentage of cells in G1 phase (the G1 increment) measured for that compound. Certain invention compounds were initially identified by phenotype-based screening of small molecule libraries for activity against G2-arrested cells as described above.
Jurkat cells (a human T cell lymphoma-derived cell line) were arrested at the G2 phase by X-ray irradiation at 10 Gy, and cultured for 24 hours in 10% fetal calf serum (FCS)/RPMI1640 at 37° C. with 5% CO2/air. (FCS was from Equitech-Bio, Kerrville, Tex., and RPMI1640 was from Sigma-Aldrich, St. Louis, Mo.) Test compounds were added to the medium at the indicated doses, and the cells were cultured under the conditions described above, for an additional 24 hours before harvesting.
Harvested cells were stained with Krishan's buffer (0.1% sodium citrate, 50 μg/ml propidium iodide, 20 μg/ml RNase A, 0.5% Nonidet P-40) and analyzed by flow cytometry (BD Biosciences, Franklin Lakes, N.J.) to identify the cell stage of each cell in the sample. Cells in G1 phase were identified by having […] (2N) DNA content.
The IC50 value for each compound was calculated as the dosage showing half maximal activity to induce the increase of the percentage of cells in G1 phase (the G1 increment). IC50 values were used to measure the activity of compounds and to determine structure-activity relationships.
Pre-arrested Jurkat cells were prepared as described in Example 1. Briefly, Jurkat cells were subjected to X-ray irradiation at a dose of 10 Gy, and cultured for 24 hours in 10% fetal calf serum (FCS)/RPMI1640 at 37° C. with 5% CO2/air, after which time cells were exposed to various concentrations of test compounds, and cultured under the conditions described above for an additional 24 hours before harvesting. Harvested cells were stained with Krishan's buffer (0.1% sodium citrate, 50 μg/ml propidium iodide, 20 μg/ml RNase A, 0.5% Nonidet P-40) and analyzed by flow cytometry (BD Biosciences, Franklin Lakes, N.J.) to identify the cell stage of each cell in the sample. Cells in G1 phase were identified by having […] (2N) DNA content.
The IC50 value for each compound was calculated as the dosage (concentration in μM) that caused half-maximal increase of the percentage of cells in G1 phase (the G1 increment) measured for that test compound. Table 1 below presents the structure, mass, 1H NMR values, and […] values for representative compounds.
The IC50 value for each compound was calculated as the dosage (concentration in μM) that caused half-maximal increase of the percentage of cells in G1 phase (the G1 increment) measured for that test compound. Table 2 below presents structures, IUPAC name, molecular formula, ID number (“SCID”), mass, 1H NMR values, and IC50 values for representative compounds. Table 3 presents structures, IUPAC name, molecular formula, ID number (“SCID”), mass, 1H NMR values, and IC50 values for further representative compounds.

| Structure (SMILES) | pIC50 |
| --- | --- |
| CC1=C(C)C(=O)N(Nc2cc(CN3CCN(C(=O)OCc4ccccc4)CC3)c3ccc(Br)cc3n2)C1=O [Compound S01683, Phenylmethyl4-({2-[(3,4-dimethyl-2,5-dioxoazolinyl)amino]-7-bromo-4-quinolyl}methyl)piperazinecarboxylate] | 6.20 |
| CC1=C(C)C(=O)N(Nc2cc(Cl)nc(-c3ccccc3)c2C(F)(F)F)C1=O [Compound S01688, 1-{[6-chloro-2-phenyl-3-(trifluoromethyl)(4-pyridyl)]amino}-3,4-dimethylazoline-2,5-dione] | 6.20 |
| CC1=C(C)C(=O)N(Nc2cccc(-c3cccc(C(F)(F)F)c3)n2)C1=O [Compound S01691, 3,4-dimethyl-1-({6-[3-(trifluoromethyl)phenyl](2-pyridyl)}amino)azoline-2,5-dione] | 6.20 |
| CC1=C(C)C(=O)N(Nc2cc(CN3CCN(C(=O)c4ccccc4)CC3)c3ccc(Br)cc3n2)C1=O [Compound S01699, 1-[(7-bromo-4-{[4-(phenylcarbonyl)piperazinyl]methyl}(2-quinolyl))amino]-3,4-dimethylazoline-2,5-dione] | 6.20 |
| CC1=C(C)C(=O)N(Nc2cc(Cl)c(C(F)(F)F)c(-c3ccccc3)n2)C1=O [Compound S01734] | 6.35 |
| CC1=C(C)C(=O)N(Nc2cc(C(F)(F)F)cc(Cl)n2)C1=O [Compound S01737, 1-{[6-chloro-4-(trifluoromethyl)(2-pyridyl)]amino}-3,4-dimethylazoline-2,5-dione] | 6.51 |
| CC1=C(CCC(=O)N(C)c2ccccc2)C(=O)N(Nc2ccc(C(F)(F)F)c(Cl)n2)C1=O [Compound S01759, 3-(1-{[6-chloro-5-(trifluoromethyl)(2-pyridyl)]amino}-4-methyl-2,5-dioxoazolin-3-yl)-N-methyl-N-phenylpropanamide] | 6.20 |
| CC1=C(C)C(=O)N(Nc2ccc(C(F)(F)F)c(Cc3ccccc3)n2)C1=O [Compound S01762, 3,4-dimethyl-1-{[6-benzyl-5-(trifluoromethyl)(2-pyridyl)]amino}azoline-2,5-dione] | 6.20 |
| CC1=C(C)C(=O)N(Nc2cc(CN3CCN(C(=O)c4ccc(C)cc4C)CC3)c3ccc(Br)cc3n2)C1=O [Compound S01800, 1-{[4-({4-[(2,4-dimethylphenyl)carbonyl]piperazinyl}methyl)-7-bromo (2-quinolyl)]amino}-3,4-dimethylazoline-2,5-dione] | 6.20 |
| COc1ccc(C(=O)N2CCN(Cc3cc(NN4C(=O)C(C)=C(C)C4=O)nc4cc(Br)ccc34)CC2)cc1 [Compound S01801, 1-{[7-bromo-4-({4-[(4-methoxyphenyl)carbonyl]piperazinyl}methyl) (2-quinolyl)]amino}-3,4-dimethylazoline-2,5-dione] | 6.20 |
| CC(=O)N(c1ccc(C(F)(F)F)c(Cl)n1)N1C(=O)C(C)=C(CO)C1=O [Compound S01820, N-[6-chloro-5-(trifluoromethyl)(2-pyridyl)]-N-[4-(hydroxymethyl)-3-methyl-2,5-dioxoazolinyl]acetamide] | 6.20 |
| CC1=C(C)C(=O)N(Nc2cc(CN3CCN(S(=O)(=O)c4ccccc4)CC3)c3ccc(Br)cc3n2)C1=O [Compound S01822, 1-[(7-bromo-4-{[4-(phenylsulfonyl)piperazinyl]methyl}(2-quinolyl))amino]-3,4-dimethylazoline-2,5-dione] | 6.20 |
| CC1=C(C)C(=O)N(Nc2cc(CNC3CCN(C(=O)OC(C)(C)C)CC3)c3ccc(Br)cc3n2)C1=O [Compound S01862, tert-butyl 4-[({2-[(3,4-dimethyl-2,5-dioxoazolinyl)amino]-7-bromo-4-quinolyl}methyl)amino]piperidinecarboxylate] | 6.03 |
| CC1=C(C)C(=O)N(Nc2cc(CN3CCC(NC(=O)OC(C)(C)C)C3)c3ccc(Br)cc3n2)C1=O (stereo not shown) [Compound S01864, N-[1-({2-[(3,4-dimethyl-2,5-dioxoazolinyl)amino]-7-bromo(4-quinolyl)}methyl)pyrrolidin-3-yl] (tert-butoxy)carboxamide] | 6.33 |
| COC(=O)CCC1=C(C)C(=O)N(Nc2cc(CN3CCN(C(=O)OC(C)(C)C)CC3)c3ccc(Br)cc3n2)C1=O [Compound S01865, Methyl 3-(1-{[4-({4-[(tert-butyl)oxycarbonyl]piperazinyl}methyl)-7-bromo (2-quinolyl)]amino}-4-methyl-2,5-dioxoazolin-3-yl)propanoate] | 6.51 |
| CC1=C(C)C(=O)N(Nc2cc(CN3CCN(C(=O)c4ccc(F)cc4)CC3)c3ccc(Br)cc3n2)C1=O [Compound S01877, 1-{[7-bromo-4-({4-[(4-fluorophenyl)carbonyl]piperazinyl}methyl) (2-quinolyl)]amino}-3,4-dimethylazoline-2,5-dione] | 6.33 |
| CC1=C(C)C(=O)N(Nc2cc(CN3CCN(C(=O)c4ccc(N(C)C)cc4)CC3)c3ccc(Br)cc3n2)C1=O [Compound S01880, 1-({4-[(4-{[4-(dimethylamino)phenyl]carbonyl}piperazinyl)methyl]-7-bromo (2-quinolyl)}amino)-3,4-dimethylazoline-2,5-dione] | 6.51 |

Now those with a higher pIC50, led by results:

| pIC50 | Structure (SMILES) |
| --- | --- |
| 6.81 | CCN(CC)C(=O)CCC1=C(C)C(=O)N(Nc2ccc(C(F)(F)F)c(Cl)n2)C1=O [Compound S01711, 3-(1-{[6-chloro-5-(trifluoromethyl)(2-pyridyl)]amino}-4-methyl-2,5-dioxoazolin-3-yl)-N,N-diethylpropanamide] |
| 6.81 | CCOC(=O)C(CC1=C(C)C(=O)N(Nc2ccc(C(F)(F)F)c(Cl)n2)C1=O)C(=O)OCC [Compound S01712, Diethyl 2-[(1-{[6-chloro-5-(trifluoromethyl)(2-pyridyl)]amino}-4-methyl-2,5-dioxoazolin-3-yl)methyl]propane-1,3-dioate] |
| 6.81 | CC1=C(CCC(=O)NC(C)(C)C)C(=O)N(Nc2ccc(C(F)(F)F)c(Cl)n2)C1=O [Compound S01758, N-(tert-butyl)-3-(1-{[6-chloro-5-(trifluoromethyl)(2-pyridyl)]amino}-4-methyl-2,5-dioxoazolin-3-yl)propanamide] |
| 7.11 | CON(C)C(=O)CCC1=C(C)C(=O)N(Nc2ccc(C(F)(F)F)c(Cl)n2)C1=O [Compound S01796, 3-(1-{[6-chloro-5-(trifluoromethyl)(2-pyridyl)]amino}-4-methyl-2,5-dioxoazolin-3-yl)-N-methoxy-N-methylpropanamide] |
| 7.30 | CCOC(=O)CCC1=C(C)C(=O)N(Nc2ccc(C(F)(F)F)c(Cl)n2)C1=O [Compound S01861, Ethyl 3-(1-{[6-chloro-5-(trifluoromethyl)(2-pyridyl)]amino}-4-methyl-2,5-dioxoazolin-3-yl) propanoate] |
| 6.63 | CC1=C(C)C(=O)N(Nc2cc(CN3CCN(C(=O)c4ccccc4Cl)CC3)c3ccc(Br)cc3n2)C1=O [Compound S01878, 1-{[7-bromo-4-({4-[(2-chlorophenyl)carbonyl]piperazinyl}methyl) (2-quinolyl)]amino}-3,4-dimethylazoline-2,5-dione] |
| 7.11 | COc1ccccc1C(=O)N1CCN(Cc2cc(NN3C(=O)C(C)=C(C)C3=O)nc3cc(Br)ccc23)CC1 [Compound S01879, 1-{[7-bromo-4-({4-[(2-methoxyphenyl)carbonyl]piperazinyl}methyl) (2-quinolyl)]amino}-3,4-dimethylazoline-2,5-dione] |
| 6.63 | CNC(=O)CCC1=C(C)C(=O)N(Nc2ccc(C(F)(F)F)c(Cl)n2)C1=O [Compound S01883, 3-(1-{[6-chloro-5-(trifluoromethyl)(2-pyridyl)]amino}-4-methyl-2,5-dioxoazolin-3-yl)-N-methylpropanamide] |
